Experimental data reported in PMC3117668 (ACS medicinal chemistry letters, 2011).
≈ marks a conversion by molar mass, not a printed value.

How the values were obtained:
[1] = system: H37Rv-TB; assay: MIC re-screen in the presence of 4% BSA and 10% FBS; type: cell-based, Mycobacterium tuberculosis; conditions: ATP and MABA readouts
[2] = system: H37Rv TB; assay: Whole cell MIC against H37Rv; type: cell-based; conditions: Mycobacterium tuberculosis
[3] = system: M. bovis BCG; assay: microbe, parasite or virus in culture; type: cell-based; conditions: Mycobacterium tuberculosis variant bovis BCG, read-out: MIC90 M. bovis BCG

| Structure (SMILES) | MIC shift [1] | MIC [2] [µM] | also measured |
| --- | --- | --- | --- |
| Cc1ccn2c(C(=O)NCc3ccccc3)c(C)nc2c1 [Compound 1] | less than two fold |  |  |
| Cc1ccn2c(C(=O)NCc3ccc(Cl)c(Cl)c3)c(C)nc2c1 [Compound 7] |  | 9 to 14 (≈ 3.13 to 4.88 µg/mL) |  |
| Cc1ccn2c(C(=O)NCc3cccc(F)c3)c(C)nc2c1 [Compound 8] |  | ~0.3 (≈ 0.0892 µg/mL) |  |
| COc1cccc(CNC(=O)c2c(C)nc3ncc(C)cn23)c1 [Compound 10] | less than two fold |  |  |
| CO[C@H]1/C=C/O[C@@]2(C)Oc3c(C)c(O)c4c(O)c(c(/C=N/N5CCN(C)CC5)c(O)c4c3C2=O)NC(=O)/C(C)=C\C=C\[C@H](C)[C@H](O)[C@@H](C)[C@@H](O)[C@@H](C)[C@H](OC(C)=O)[C@@H]1C [RMP, Rifampicin] |  |  | MIC90 [3]: < 0.78 µM |
| CCOC(=O)c1c(C)nc2cc(C)ccn12 [ethyl 2,7-dimethylimidazo[1,2-a]pyridine-3-carboxylate] |  | ~65 (≈ 14.2 µg/mL) |  |
